Tests used:
Experiment in all cases: relative viability (nuclei count vs DMSO), 5 days (fraction); higher = more cells survive
Tozasertib = compound: Cc1cc(Nc2cc(N3CCN(C)CC3)nc(Sc3ccc(NC(=O)C4CC4)cc3)n2)n[nH]1 [Tozasertib]
Outline: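 Viability here means nuclei in treated wells divided by nuclei in vehicle wells, reported as the median across plates. Only plates with control CV below 25% and at least one doubling passed. Lung cancer cell lines in 1536-well plates were exposed to five √10-spaced library-drug doses for 5 days and counted from 4× Hoechst images in MetaXpress.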

Tozasertib + OSI-027 = compound: Cc1cc(Nc2cc(N3CCN(C)CC3)nc(Sc3ccc(NC(=O)C4CC4)cc3)n2)n[nH]1 [Tozasertib] + COc1cccc2cc(-c3nc([C@H]4CC[C@H](C(=O)O)CC4)n4ncnc(N)c34)[nH]c12 [OSI-027] (partner 0.5 µM)
Outline: (§1)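 Relative viability is defined as nuclei in treated wells over nuclei in vehicle wells. Duplicate plates were run and medians reported. Lung cancer cell lines in 1536-well plates were dosed by pin tool one day after seeding, with one drug or with a fixed anchor-drug dose plus five library-drug doses (not always all listed) in √10 steps, and nuclei were counted after 5 days.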

Tozasertib + Bortezomib = compound: Cc1cc(Nc2cc(N3CCN(C)CC3)nc(Sc3ccc(NC(=O)C4CC4)cc3)n2)n[nH]1 [Tozasertib] + CC(C)C[C@H](NC(=O)[C@H](Cc1ccccc1)NC(=O)c1cnccn1)B(O)O [Bortezomib] (partner 0.002 µM)
Outline: as §1

Tozasertib + Pictilisib = compound: Cc1cc(Nc2cc(N3CCN(C)CC3)nc(Sc3ccc(NC(=O)C4CC4)cc3)n2)n[nH]1 [Tozasertib] + CS(=O)(=O)N1CCN(Cc2cc3nc(-c4cccc5[nH]ncc45)nc(N4CCOCC4)c3s2)CC1 [Pictilisib] (partner 1 µM)
Outline: as §1

Cell Line | relative viability (Tozasertib; 0.004 µM) | relative viability (Tozasertib; 0.01265 µM) | relative viability (Tozasertib; 0.04 µM) | relative viability (Tozasertib; 0.1 µM, anchor plate) | relative viability (Tozasertib; 0.1265 µM) | relative viability (Tozasertib + OSI-027; first compound 0.004 µM) | relative viability (Tozasertib + OSI-027; first compound 0.01265 µM) | relative viability (Tozasertib + OSI-027; first compound 0.04 µM) | relative viability (Tozasertib + OSI-027; first compound 0.1265 µM) | relative viability (Tozasertib + Bortezomib; first compound 0.004 µM) | relative viability (Tozasertib + Bortezomib; first compound 0.01265 µM) | relative viability (Tozasertib + Bortezomib; first compound 0.04 µM) | relative viability (Tozasertib + Pictilisib; first compound 0.004 µM) | relative viability (Tozasertib + Pictilisib; first compound 0.01265 µM) | relative viability (Tozasertib + Pictilisib; first compound 0.04 µM) | relative viability (Tozasertib + Pictilisib; first compound 0.1265 µM) | relative viability (Tozasertib + Bortezomib; first compound 0.1265 µM)
201T | 0.973 | 0.956 | 0.968 | 0.915 | 0.89 | 0.76 | 0.781 | 0.839 | 0.621 | 1.1 | 1.06 | 1.07 | 0.716 | 0.581 | 0.709 | 0.537 | 
A549 | 1.02 | 0.982 | 1.05 |  | 0.488 |  |  |  |  |  |  |  | 0.529 | 0.463 | 0.517 | 0.0954 | 
A-427 | 1.04 | 0.911 | 1.08 | 0.212 | 0.505 | 0.457 | 0.478 | 0.48 | 0.332 | 0.983 | 0.942 | 1.02 | 0.676 | 0.585 | 0.814 | 0.168 | 0.812
ABC-1 | 1.02 | 0.858 | 0.767 | 0.186 | 0.412 | 0.542 | 0.495 | 0.58 | 0.207 | 0.278 | 0.282 | 0.3 | 0.782 |  | 0.625 | 0.291 | 0.231
BEN | 1.11 | 0.921 | 1.06 |  | 0.759 | 0.333 | 0.335 | 0.309 | 0.284 | 1.01 | 0.79 | 0.925 | 0.56 | 0.575 | 0.66 | 0.456 | 0.571
CAL-12T | 1.09 |  | 0.952 | 0.309 | 0.42 | 0.954 | 0.562 | 0.719 | 0.214 | 1.2 | 0.785 | 0.962 | 0.472 | 0.386 | 0.414 | 0.171 | 0.362
COR-L23 | 1.02 | 0.958 | 0.947 | 0.203 | 0.701 | 0.747 | 0.726 | 0.635 | 0.538 | 0.986 | 0.889 | 0.888 | 0.724 | 0.756 | 0.783 | 0.397 | 0.864
COR-L 105 | 0.956 | 0.974 | 0.957 | 0.36 | 0.473 | 0.698 | 0.68 | 0.731 | 0.343 | 0.879 | 0.815 | 0.943 | 0.434 | 0.511 | 0.412 | 0.267 | 0.291
ChaGo-K-1 | 1.06 | 1 | 1 | 0.233 | 0.858 | 0.584 | 0.511 | 0.562 | 0.31 | 1.17 | 0.953 | 1.14 | 0.849 | 0.676 | 0.771 | 0.256 | 0.31
EKVX | 0.939 | 0.937 | 0.988 | 0.386 | 0.898 | 0.692 | 0.671 | 0.734 |  | 1.19 | 0.993 |  | 0.383 | 0.443 | 0.527 | 0.348 | 1.05
EMC-BAC-2 | 1.01 | 0.946 | 0.913 | 0.294 | 0.486 | 0.381 | 0.389 | 0.381 | 0.262 | 1.09 | 1.05 | 0.96 | 0.547 | 0.541 | 0.654 | 0.395 | 
EPLC-272H | 0.981 |  | 1 | 0.296 | 0.55 | 0.289 | 0.256 | 0.288 | 0.265 | 0.774 | 0.804 | 0.775 | 0.442 | 0.31 | 0.326 |  | 
H3255 | 1.07 | 0.854 | 0.966 | 0.721 | 0.833 | 0.452 | 0.492 | 0.61 | 0.459 | 0.789 | 0.7 | 0.823 |  | 0.463 | 0.533 | 0.413 | 0.549
HARA | 0.981 |  | 1.01 | 0.11 | 0.519 | 0.467 | 0.447 | 0.583 | 0.343 | 1.18 | 1 | 1.01 | 0.421 | 0.44 | 0.373 | 0.243 | 0.664
HCC-15 | 1.06 | 0.936 | 1.04 | 0.393 | 0.687 | 0.745 | 0.64 | 0.665 | 0.419 | 0.999 |  |  | 0.702 | 0.653 | 0.802 | 0.585 | 0.851
HCC-44 | 1.02 | 0.903 | 1.01 | 0.974 |  | 0.605 | 0.485 | 0.606 | 0.341 | 0.866 | 0.942 | 1.04 | 0.596 | 0.603 | 0.67 | 0.409 | 0.786
HCC-78 | 1.1 | 0.819 | 1.09 | 0.464 | 0.806 | 0.387 | 0.357 | 0.363 | 0.361 | 0.504 |  |  | 0.235 | 0.203 | 0.202 | 0.171 | 0.497

Source: the supplement of paper PMC10307832
